Values of other authors, collected in article PMC4041784, “Stereoselective Property of 20(S)-Protopanaxadiol Ocotillol Type Epimers Affects Its Absorption and Also the Inhibition of P-Glycoprotein” (PLoS ONE, 2014).

Tests used:
[1] = not told
[2] = set-up: method as in PMID 21258738, PMID 15734156
[3] = tested on: peroxisome proliferator activated receptor-γ; set-up: method as in PMID 22234331
[4] = tested on: human fecal microflora; set-up: method as in PMID 11824558

Compound | permeability [1] [×10⁻⁶ cm/s] | oral bioavailability [2] | other results
CC(C)=CCCC(C)(O)C1CCC2C1C(O)CC1C2(C)CCC2C(C)(C)C(OC3OC(CO)C(O)C(O)C3O)CCC21C [20(S)-Rh2] | 0.3 |  | permeability difference between 20(R)-Rh2 and 20(S)-Rh2 [1]: 15 folds
CC(C)=CCC[C@@](C)(O)[C@H]1CC[C@]2(C)[C@@H]1[C@H](O)C[C@@H]1[C@@]3(C)CC[C@H](O[C@@H]4O[C@H](CO)[C@@H](O)[C@H](O)[C@H]4O)C(C)(C)[C@@H]3CC[C@]12C [20(R)-Rh2] | 0.02 |  | 
CC(C)=CCC[C@](C)(O)[C@H]1CC[C@]2(C)[C@@H]1[C@H](O)C[C@@H]1[C@@]3(C)CC[C@H](O[C@@H]4O[C@H](CO)[C@@H](O)[C@H](O)[C@H]4O)C(C)(C)[C@@H]3CC[C@]12C [Rh2, ginsenoside Rh2] |  | less than 5% | 
20(S)-Rg3 |  |  | peroxisome proliferator activated receptor-γ activity relative to 20(R)-Rg3 [3]: 10 fold; transformation amount into 20(S)-Rh2 or 20(S)-PPD relative to 20(R)-Rg3 [4]: 19 fold
CC(C)=CCC[C@](C)(O)[C@H]1CC[C@]2(C)[C@@H]1[C@H](O)C[C@@H]1[C@@]3(C)CC[C@H](O[C@@H]4O[C@H](CO)[C@@H](O)[C@H](O)[C@H]4O[C@@H]4O[C@H](CO)[C@@H](O)[C@H](O)[C@H]4O)C(C)(C)[C@@H]3CC[C@]12C [Rg3, Ginsenoside Rg3] |  | less than 5% | 
